Reference: PMC12299285, “Isolation and Identification of Secondary Metabolites in Rheum tataricum L.fil. Growing in Kazakhstan and Surveying of Its Anticancer Potential” (Molecules, 2025)
Like-named read-outs stand apart in the source and are kept apart here.

Key:
activated macrophages = tested on: activated macrophages; set-up: method as in PMID 9810263; settings: in vivo; cited from earlier work
[1] = tested on: DU-145 prostate cancer cell line; experiment: MTT cytotoxicity assay, DU-145 prostate cancer cells; assay type: cell-based, human; settings: three independent experiments, read-out: Growth Inhibition of Cells (GI50 ± SEM) DU-145
[2] = tested on: HeLa (HPV18-positive human cervical cancer cell line); experiment: MTT cytotoxicity assay, HeLa cervical cancer cells; assay type: cell-based; settings: 48 h incubation, three independent experiments, read-out: Growth Inhibition of Cells (GI50 ± SEM) HeLa (HPV-18)
[3] = tested on: CaSki (HPV16-positive human cervical cancer cell line); experiment: MTT cytotoxicity assay, CaSki cervical cancer cells; assay type: cell-based; settings: 48 h incubation, three independent experiments, read-out: Growth Inhibition of Cells (GI50 ± SEM) CaSki (HPV-16)
[4] = tested on: SNB-19 glioblastoma cell line; experiment: MTT cytotoxicity assay, SNB-19 glioblastoma cells; assay type: cell-based, human; settings: three independent experiments, read-out: Growth Inhibition of Cells (GI50 ± SEM) SNB-19
[5] = tested on: MCF-7 breast adenocarcinoma cells; experiment: MTT cytotoxicity assay, MCF-7 breast adenocarcinoma cells; assay type: cell-based, human; settings: three independent experiments, read-out: Growth Inhibition of Cells (GI50 ± SEM) MCF-7
[6] = tested on: Normal epithelial VERO cells; experiment: MTT cytotoxicity assay, normal epithelial VERO cells (non-cancer control); assay type: cell-based, African green monkey; settings: 48 h incubation, three independent experiments, read-out: Growth Inhibition of Cells (GI50 ± SEM) VERO
[7] = tested on: T98G glioblastoma cell line; experiment: MTT cytotoxicity assay, T98G glioblastoma cells; assay type: cell-based, human; settings: 48 h incubation, three independent experiments, read-out: Growth Inhibition of Cells (GI50 ± SEM) T98G
[8] = tested on: C33 A (HPV-negative human cervical cancer cell line); experiment: MTT cytotoxicity assay, C33 A cervical cancer cells; assay type: cell-based; settings: read-out: Growth Inhibition of Cells (GI50 ± SEM) C33 A (HPV-Negative)
[9] = set-up: method as in PMID 21725818; settings: mice; cited from earlier work
[10] = set-up: method as in PMID 21725818; settings: rats; cited from earlier work
[11] = Homo sapiens, DU-145, 48 h incubation
[12] = Homo sapiens, SNB-19, 48 h incubation
[13] = Homo sapiens, MCF7, 48 h, 48 h incubation
[14] = Chlorocebus sabaeus, Vero, 48 h
[15] = Homo sapiens, C-33-A, MTT, 48 h incubation, three independent experiments

C[C@H](O)CCc1ccc(O)cc1 [Compound 5, (S)-4-(4-Hydroxyphenyl)-2-butanol]
NO production by activated macrophages (activated macrophages): suppressed NO production

COc1cccc2c1C(=O)c1c(O)c3c(c(O)c1C2=O)C[C@@](O)(C(=O)CO)C[C@@H]3O[C@H]1C[C@H](N)[C@H](O)[C@H](C)O1 [Doxorubicin, reference compound]
GI50 [1, 11]: 15 ± 0.3 µM
GI50 ([2]; Homo sapiens, HeLa): 6.1 ± 0.7 µM
GI50 ([3]; Homo sapiens, Ca-Ski): 10.1 ± 0.7 µM
GI50 [4, 12]: 7.6 ± 0.7 µM
GI50 ([5]; Homo sapiens, MCF7, 48 h incubation): 5.2 ± 0.8 µM
GI50 ([6]; Chlorocebus sabaeus, Vero): 8 ± 1.8 µM
GI50 ([7]; Homo sapiens, T98G): 13 ± 0.5 µM

1-O-Galloyl-β-D-glucopyranose [Compound 6]
GI50 ([1]; 48 h incubation): 67 ± 6.4 µM
GI50 [2]: 29 ± 2.4 µM
GI50 [3]: 18 ± 1.4 µM
GI50 ([4]; 48 h incubation): 26 ± 1.2 µM
GI50 ([5]; 48 h incubation): 31 ± 0.7 µM
GI50 [6]: > 100 µM
GI50 [7]: 21 ± 0.8 µM
GI50 ([8]; MTT, 48 h incubation, three independent experiments): 27 ± 2.6 µM

OC[C@H]1O[C@@H](Oc2ccc(/C=C/c3cc(O)cc(O)c3)cc2)[C@H](O)[C@@H](O)[C@@H]1O [Compound 12, (E)-resveratrol 4′-O-β-D-glucopyranoside]
GI50 ([2]; Homo sapiens, HeLa): 18 ± 1.6 µM
GI50 [4, 12]: 9.2 ± 0.8 µM
GI50 ([5]; 48 h incubation): 7 ± 1.2 µM
GI50 [5, 13]: 7 to 8 µM
GI50 [6]: 98 ± 4.8 µM
GI50 [6, 14]: > 83 µM
GI50 ([7]; Homo sapiens, T98G): 21 ± 1.7 µM

COc1ccc(C=Cc2cc(O)cc(OC3OC(CO)C(O)C(O)C3O)c2)cc1 [Compound 11, 3,5-Dihydroxy-4′-methoxystilbene-3-O-β-D-glucopyranoside]
GI50 ([2]; Homo sapiens, HeLa): 17 ± 0.9 µM
GI50 [4, 12]: 13 ± 1.1 µM
GI50 ([5]; 48 h incubation): 8 ± 1.8 µM
GI50 [5, 13]: 7 to 8 µM
GI50 [6]: 92 ± 7.9 µM
GI50 [6, 14]: > 83 µM
GI50 ([7]; Homo sapiens, T98G): 18 ± 3.5 µM

C[C@@H](O)CCc1ccc(O)cc1 [Compound 4, (R)-4-(4-Hydroxyphenyl)-2-butanol]
GI50 [1, 11]: 21 ± 0.8 µM
GI50 ([2]; Homo sapiens, HeLa): 29 ± 0.7 µM
GI50 ([3]; Homo sapiens, Ca-Ski): 10 ± 0.6 µM
GI50 [4, 12]: 15 ± 0.9 µM
GI50 [5, 13]: 11 ± 1.4 µM
GI50 [6]: > 100 µM
GI50 [6, 14]: > 83 µM
GI50 ([7]; Homo sapiens, T98G): 18 ± 1.1 µM
GI50 [8, 15]: 28 ± 0.5 µM

CC(=O)CCc1ccc(O)cc1 [Compound 9, 4-(4-Hydroxyphenyl)butan-2-one]
GI50 [1, 11]: 60 ± 1.7 µM
GI50 ([2]; Homo sapiens, HeLa): 23 ± 3.7 µM
GI50 ([3]; Homo sapiens, Ca-Ski): 20 ± 1.5 µM
GI50 [4, 12]: 33 ± 1.8 µM
GI50 [5, 13]: 21 ± 2.1 µM
GI50 [6]: > 100 µM
GI50 [6, 14]: > 83 µM
GI50 ([7]; Homo sapiens, T98G): 19 ± 0.9 µM
GI50 [8, 15]: 19 ± 2.2 µM

C[C@@H](CCc1ccc(O)cc1)O[C@@H]1O[C@H](CO)[C@@H](O)[C@H](O)[C@H]1O [Compound 3, (S)-4-(4-Hydroxyphenyl)-2-butanol 2-β-D-glucopyranoside]
NO production by activated macrophages (activated macrophages): suppressed NO production

C[C@H](CCc1ccc(O)cc1)O[C@@H]1O[C@H](CO)[C@@H](O)[C@H](O)[C@H]1O [Compound 1, (R)-4-(4-Hydroxyphenyl)-2-butanol 2-β-D-glucopyranoside]
GI50 [1, 11]: 21 ± 2.3 µM
analgesic actions [9]: significant analgesic actions
GI50 ([2]; Homo sapiens, HeLa): 16 ± 0.8 µM
anti-inflammatory actions [10]: anti-inflammatory actions
GI50 ([3]; Homo sapiens, Ca-Ski): 12 ± 0.7 µM
GI50 [4, 12]: 23 ± 4.1 µM
GI50 [5, 13]: 10 ± 1.8 µM
GI50 [6]: > 100 µM
GI50 [6, 14]: > 83 µM
GI50 ([7]; Homo sapiens, T98G): 29 ± 2.5 µM
GI50 ([8]; Homo sapiens, C-33-A, 48 h): 27 ± 1.4 µM
